Reference: patent publication EP2397471A1, “Benzimidazole compounds and their use” (China Medical University, priority 2010, dated 2011)

Experiments:
PC-3 cells [1] = assay: FACScan flow cytometric analysis of cell cycle progression; format: cell-based; conditions: 1 µM, 3 µM, and 10 µM, 0 hr to 48 hrs
Protocol: PC-3 cells were treated with Compound 55 (at different concentrations: 1 µM, 3 µM, and 10 µM) for 0 hr, 6 hrs, 12 hrs, 18 hrs, 24 hrs, 36 hrs, and 48 hrs. After treatment, cells were washed twice with ice-cold PBS, collected by centrifugation and fixed in 70% (v/v) ethanol at 4°C for 30 min. Then, cells were treated with 0.2 ml of a buffer (containing 0.2 M Na2HPO4 and 0.1 M citric acid buffer, pH 7.8) for 30 min, centrifuged, and then incubated in 1 mL propidium iodide (PI) staining buffer (0.1 % Triton X-100, 100 µg/mL RNase A, 80 µg/mL propidium iodide in PBS) at 37°C for 30 min. Cells were detected using a cytofluorometer, and analyzed by FACScan and CellQuest program (Becton Dickinson).

Ras, Raf-1, and MEK = assay: Western blotting of Ras, Raf-1, MEK; format: cell-based; conditions: PC-3 cells; 10 µM; 30-120 min for Ras, 6-24 hrs for Raf-1, MEK
Protocol: (§1) PC-3 cells were incubated with a vehicle (0.1% DMSO) as control or Coumpound 55 (10 µM) for 30 min, 45 min, 60 min, and 120 min for testing Ras; or for 6 hrs, 12 hrs, 18 hrs, and 24 hrs for testing Raf-1, Phospho-MEK, MEK, and GAPDH. After the treatment, cells were washed twice with ice-cold PBS and then lysed with 100 µL lysis buffer (20 mM Tris, pH 7.5, 1 mM MgCl2, 125 mM NaCl, 1% Triton X-100, 1 mM phenylmethylsulphonylfluoride, 10 µg/mL leupeptin, 10 µg/mL aprotinin, 25 mM β-glycerophosphate, 50 mM NaF, and 100 µM sodium orthovanadate). Then, the expressions of the above proteins were detected by Western blotting.

[2] = tested on: Cyclin E, Cyclin A, Cyclin B1, Cdk1, Cdk2, p27, MPM2; assay: Western blot analysis of cell-cycle regulators; format: cell-based; conditions: PC-3 cells; 10 µM
Protocol: as §1
The cell-cycle regulators were also examined by Western blot analysis. Proteins in the lysis (40 µg) were separated by electrophoresis in a 10 or 15% polyacrylamide gel, transferred to a nitrocellulose membrane and immuno-reacted with respective antibodies against Cyclin E, Cyclin A, Cyclin B1, Cdk1, Cdk2, p27, MPM2, and GAPDH.

Tubulin proteins = assay: In vitro tubulin turbidity assay; format: biochemical; conditions: absorbance at 340 nm, 37°C, 60 min
Protocol: Effects of the benzimidazole compounds on tubulin polymerization were detected using CytoDYNAMIX Screen 03 kit (Cytoskeleton, Inc., Denver, CO).
Tubulin proteins (> 99% purity) were suspended in G-PEM buffer containing 80 mM PIPES, 2 mM MgCl2, 0.5 mM […], and 1.0 mM GTP (pH 6.9) and 5% glycerol with or without a test compound. Then, the mixture was transferred to a 96-well plate and the absorbance was measured at 340 nm (37°C) for 60 min (SpectraMAX Plus, Molecular Devices Inc., Sunnyvale, CA).
Level oftubulin polymerization was determined by examining turbidity of the tubulin suspension. Absorbance of the suspension at 340 nm was plotted as a function of time. Accordingly, the velocity and magnitude of tubulin polymerization were determined.

PC-3 cells [3] = assay: In situ tubulin assay (immunofluorescence microscopy); format: cell-based; conditions: 18 to 24 h
Protocol: The organization and formation of microtubule were detected by immunofluorescence microscopic examination in PC-3 cells.
PC-3 cells were seeded in 8-well chamber slides and incubated with a vehicle (0.1% DMSO, control), Compound 55 (10 µM), taxol (0.1 µM), or vincristine (0.1 µM) for 18 to 24 h. Then, the cells were fixed with 100 % methanol at -20°C for 5 min and incubated in 1 % bovine serum albumin (BSA) containing 0.1 % Triton X-100 at 37°C for 30 min. Cells were then washed twice with PBS for 5min and stained with primary antibody specific to β-tubulin at 37°C for 1 h. Afterwards, FITC-labeled secondary antibodies were used (staining performed at 37°C for 40 min, green fluorescence) and the protein was detected using a confocal laser microscopic system (Leica TCS SP2). The nuclei were visible by DAPI staining (1 mg/mL DAPI, blue fluorescence).

[4] = tested on: Bcl-2 family member proteins, caspases; assay: Western blot analysis of Bcl-2 family member proteins and caspases (apoptosis); format: cell-based; conditions: PC-3 cells; 10 µM; 0 hr to 36 hrs
Protocol: Effect of benzimidazole compounds on inducing apoptosis was evaluated by testing their effect on the expression/activation of Bcl-2 family member proteins, caspases, and c-Jun N-terminal kinase (JNK). Bcl-2 family of proteins is the most important regulators of mitochondria-involved apoptotic cell death. The pro-apoptotic members, Bax, Bak and Bad, are required for the disruption of mitochondria; whereas the anti-apoptotic Bcl-2, Bcl-xL and Mcl-1 can prevent apoptosis by antagonizing the pro-apoptotic members.
PC-3 cells were incubated with a vehicle (0.1% DMSO) or Compound 55 (10 µM) for 0 hr, 6 hrs, 12 hrs, 18 hrs, 24 hrs, and 36 hrs. Then, the cells were harvested and lysed for the detection of protein expression with specific antibodies by western blot analysis. For Western blotting, the proteins (40 µg) in the lysis (including Phospho-Bcl-2, Bcl-2, Phospho-Bcl-xL, Bcl-xL, Mcl-1, Bax, Bak, Bad, GAPDH, cleaved Bad, Caspase-9, cleaved Caspase-9, Caspase-3, cleaved Caspase-3, poly-(ADP-ribose) polymerase (PARP), cleaved PARP, and GAPDH) were separated by electrophoresis in a 10 to 15% polyacrylamide gel, transferred to a nitrocellulose membrane and immuno-reacted with specific antibodies.

SMILES	cell population at G2/M phase (PC-3 cells [1])	hypodiploid (sub-G1, apoptosis) population of the cell cycle (PC-3 cells [1])	expression of Ras, Raf-1, and MEK (Ras, Raf-1, and MEK)	expression of cyclin B1 [2]	expression of cyclin E and cyclin A [2]	tubulin polymerization (Tubulin proteins)	spindles and nuclei, in situ labeling of tubulin and chromosomes (PC-3 cells [3]; 10 µM)	Mcl-1 expression [4]	cleavage of caspase-9, caspase-3 and PARP [4]	phosphorylation and degradation of Bcl-2 and Bcl-xL [4]	spindles and nuclei, in situ labeling of tubulin and chromosomes (PC-3 cells [3]; 0.1 µM)
COc1cc(Cn2c(-c3ccccc3)nc3cc(N4CCCC4)ccc32)cc(OC)c1OC [Compound 55, 2-phenyl-5-(pyrrolidin-1-yl)-1-(3,4,5-trimethoxybenzyl)-1H benzo[d]imidazole]	increase of cell population at G2/M phase	subsequent increase of hypodiploid (sub-G1, apoptosis) population	upregulated Ras, Raf-1, and MEK	upregulated cyclin B1	downregulated cyclin E and cyclin A	inhibited tubulin polymerization in a dose-dependent manner	mono-polar	decrease of Mcl-1 expression	cleaved to produce catalytically active fragments	induced the phosphorylation and degradation of Bcl-2 and Bcl-xL	–
CC(=O)O[C@H]1C(=O)[C@@]2(C)[C@H]([C@H](OC(=O)c3ccccc3)[C@]3(O)C[C@H](OC(=O)[C@H](O)[C@@H](NC(=O)c4ccccc4)c4ccccc4)C(C)=C1C3(C)C)[C@]1(OC(C)=O)CO[C@@H]1C[C@@H]2O [taxol]	–	–	–	–	–	–	–	–	–	–	multi-polar spindles and multiple nuclei were formed
CC[C@]1(O)C[C@H]2CN(CCc3c([nH]c4ccccc34)[C@@](C(=O)OC)(c3cc4c(cc3OC)N(C=O)[C@H]3[C@@](O)(C(=O)OC)[C@H](OC(C)=O)[C@]5(CC)C=CCN6CC[C@]43[C@@H]65)C2)C1 [vincristine]	–	–	–	–	–	–	–	–	–	–	multi-polar spindles and chromosome condensation were observed
